Experimental data as given in the kinase profiling compilation of Christmann-Franck et al. (2016).

Tests used:
Assay in all cases: radiometric filter-binding kinase assay
MAPKAPK2 (human) = MAPKAPK2 (human) (UniProt P49137); details: compound 100.0 µM; ATP 20 µM
FLT1 (human) = FLT1 (human) (UniProt P17948); details: compound 100.0 µM; ATP 20 µM
NEK2 (human) = NEK2 (human) (UniProt P51955); details: compound 100.0 µM; ATP 50 µM
MAP3K11 (human) = MAP3K11 (human) (UniProt Q16584); details: compound 100.0 µM; ATP 20 µM
ROCK2 (rat) = details: compound 100.0 µM; ATP 20 µM; accession and sequence are those of the human protein
MYLK (human) = MYLK (human) (UniProt Q15746); details: compound 100.0 µM; ATP 50 µM
PRKCA (human) = PRKCA (human) (UniProt P17252); details: compound 100.0 µM; ATP 20 µM
PIM3 (human) = PIM3 (human) (UniProt Q86V86); details: compound 100.0 µM; ATP 20 µM
CDK2 CCNA2 (human) = CDK2 CCNA2 (human) (UniProt P20248+P24941); details: compound 100.0 µM; ATP 20 µM
[1] = tested on: AKT2 (human), P31751 [S474D]; details: compound 100.0 µM; ATP 50 µM
AKT2 (human), P31751 [S474D], sequence (P31751 whole entry S474D, looked up): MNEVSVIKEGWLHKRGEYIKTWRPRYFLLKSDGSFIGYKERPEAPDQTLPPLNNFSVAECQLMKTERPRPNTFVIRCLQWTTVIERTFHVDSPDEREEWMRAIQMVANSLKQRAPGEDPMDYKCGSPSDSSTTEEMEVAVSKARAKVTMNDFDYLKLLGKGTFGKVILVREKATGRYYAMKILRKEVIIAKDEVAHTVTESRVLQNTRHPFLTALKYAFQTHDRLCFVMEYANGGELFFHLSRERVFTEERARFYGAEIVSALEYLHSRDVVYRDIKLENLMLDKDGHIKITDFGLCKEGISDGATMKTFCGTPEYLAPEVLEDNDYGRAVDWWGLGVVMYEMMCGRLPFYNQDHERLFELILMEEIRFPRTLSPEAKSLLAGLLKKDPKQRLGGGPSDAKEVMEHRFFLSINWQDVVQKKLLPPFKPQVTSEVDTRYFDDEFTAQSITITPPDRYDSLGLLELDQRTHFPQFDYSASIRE

STK33 (human) = STK33 (human) (UniProt Q9BYT3); details: compound 100.0 µM; ATP 50 µM
PAK6 (human) = PAK6 (human) (UniProt Q9NQU5); details: compound 100.0 µM; ATP 20 µM
PIM2 (human) = PIM2 (human) (UniProt Q9P1W9); details: compound 100.0 µM; ATP 5 µM
EEF2K (human) = EEF2K (human) (UniProt O00418); details: compound 100.0 µM; ATP 5 µM
EPHB4 (human) = EPHB4 (human) (UniProt P54760); details: compound 100.0 µM; ATP 5 µM
MKNK2 (human) = MKNK2 (human) (UniProt Q9HBH9); details: compound 100.0 µM; ATP 50 µM
BRSK2 (human) = BRSK2 (human) (UniProt Q8IWQ3); details: compound 100.0 µM; ATP 50 µM
MAPKAPK3 (human) = MAPKAPK3 (human) (UniProt Q16644); details: compound 100.0 µM; ATP 20 µM
TBK1 (human) = TBK1 (human) (UniProt Q9UHD2); details: compound 100.0 µM; ATP 50 µM
MAPK8 (human) = MAPK8 (human) (UniProt P45983); details: compound 100.0 µM; ATP 20 µM
EPHA4 (human) = EPHA4 (human) (UniProt P54764); details: compound 100.0 µM; ATP 50 µM
ERBB4 (human) = ERBB4 (human) (UniProt Q15303); details: compound 100.0 µM; ATP 5 µM
PHKG1 (human) = PHKG1 (human) (UniProt Q16816); details: compound 100.0 µM; ATP 50 µM
PHKG1 (human), sequence (Q16816 whole entry, looked up): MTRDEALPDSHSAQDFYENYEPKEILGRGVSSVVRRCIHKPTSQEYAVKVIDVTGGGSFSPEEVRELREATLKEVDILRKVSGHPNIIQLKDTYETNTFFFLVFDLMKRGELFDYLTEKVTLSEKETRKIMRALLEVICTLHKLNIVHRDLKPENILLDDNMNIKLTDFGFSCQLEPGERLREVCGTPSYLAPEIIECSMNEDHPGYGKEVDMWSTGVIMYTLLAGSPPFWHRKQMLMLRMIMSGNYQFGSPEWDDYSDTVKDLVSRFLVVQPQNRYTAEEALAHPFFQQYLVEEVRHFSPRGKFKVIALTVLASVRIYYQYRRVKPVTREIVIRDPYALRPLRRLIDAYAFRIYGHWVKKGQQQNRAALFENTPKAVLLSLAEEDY

ABL1 (human) = ABL1 (human) (UniProt P00519); details: compound 100.0 µM; ATP 5 µM
NEK6 (human) = NEK6 (human) (UniProt Q9HC98); details: compound 100.0 µM; ATP 50 µM
CSNK2A1 (human) = CSNK2A1 (human) (UniProt P68400); details: compound 100.0 µM; ATP 5 µM
CSNK2A1 (human), sequence (P68400 whole entry, looked up): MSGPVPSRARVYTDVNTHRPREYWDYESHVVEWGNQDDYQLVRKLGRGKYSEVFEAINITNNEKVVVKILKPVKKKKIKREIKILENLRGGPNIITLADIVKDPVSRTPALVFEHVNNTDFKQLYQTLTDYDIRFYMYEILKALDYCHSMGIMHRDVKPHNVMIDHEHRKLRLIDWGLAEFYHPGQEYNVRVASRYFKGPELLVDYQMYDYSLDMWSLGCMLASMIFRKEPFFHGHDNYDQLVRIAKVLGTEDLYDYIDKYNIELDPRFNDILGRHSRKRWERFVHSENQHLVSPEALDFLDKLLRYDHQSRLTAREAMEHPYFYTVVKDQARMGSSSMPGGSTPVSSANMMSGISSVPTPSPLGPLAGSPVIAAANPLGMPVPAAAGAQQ

MARK1 (human) = MARK1 (human) (UniProt Q9P0L2); details: compound 100.0 µM; ATP 20 µM
[2] = tested on: RPS6KB1 (human), P23443 [T412E]; details: compound 100.0 µM; ATP 20 µM
PIM1 (human) = PIM1 (human) (UniProt P11309); details: compound 100.0 µM; ATP 20 µM
AURKA (human) = AURKA (human) (UniProt O14965); details: compound 100.0 µM; ATP 5 µM
PTK6 (human) = PTK6 (human) (UniProt Q13882); details: compound 100.0 µM; ATP 20 µM
MAPK13 (human) = MAPK13 (human) (UniProt O15264); details: compound 100.0 µM; ATP 5 µM
CaMK1 (human) = CaMK1 (human) (UniProt Q14012); details: compound 100.0 µM; ATP 50 µM
DYRK3 (human) = DYRK3 (human) (UniProt O43781); details: compound 100.0 µM; ATP 5 µM
DYRK3 (human), sequence (O43781 whole entry, looked up): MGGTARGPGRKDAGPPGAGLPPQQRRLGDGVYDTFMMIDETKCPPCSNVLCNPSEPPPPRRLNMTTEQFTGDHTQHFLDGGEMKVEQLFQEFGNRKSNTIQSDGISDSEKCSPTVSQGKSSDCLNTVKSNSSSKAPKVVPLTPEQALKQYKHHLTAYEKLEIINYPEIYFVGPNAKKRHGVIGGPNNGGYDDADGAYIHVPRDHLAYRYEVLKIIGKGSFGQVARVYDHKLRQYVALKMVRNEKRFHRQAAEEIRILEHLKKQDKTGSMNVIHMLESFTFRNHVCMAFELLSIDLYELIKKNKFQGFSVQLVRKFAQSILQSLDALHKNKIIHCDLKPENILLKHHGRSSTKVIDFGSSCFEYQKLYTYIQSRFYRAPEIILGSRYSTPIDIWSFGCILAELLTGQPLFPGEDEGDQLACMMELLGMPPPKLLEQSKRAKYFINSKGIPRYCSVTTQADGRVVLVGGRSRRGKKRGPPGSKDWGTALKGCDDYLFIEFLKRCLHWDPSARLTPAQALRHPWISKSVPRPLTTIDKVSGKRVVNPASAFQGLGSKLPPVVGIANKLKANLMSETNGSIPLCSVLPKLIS

MST4 (human) = MST4 (human) (UniProt Q9P289); details: compound 100.0 µM; ATP 20 µM
MELK (human) = MELK (human) (UniProt Q14680); details: compound 100.0 µM; ATP 50 µM
STK16 (human) = STK16 (human) (UniProt O75716); details: compound 100.0 µM; ATP 50 µM
STK16 (human), sequence (O75716 whole entry, looked up): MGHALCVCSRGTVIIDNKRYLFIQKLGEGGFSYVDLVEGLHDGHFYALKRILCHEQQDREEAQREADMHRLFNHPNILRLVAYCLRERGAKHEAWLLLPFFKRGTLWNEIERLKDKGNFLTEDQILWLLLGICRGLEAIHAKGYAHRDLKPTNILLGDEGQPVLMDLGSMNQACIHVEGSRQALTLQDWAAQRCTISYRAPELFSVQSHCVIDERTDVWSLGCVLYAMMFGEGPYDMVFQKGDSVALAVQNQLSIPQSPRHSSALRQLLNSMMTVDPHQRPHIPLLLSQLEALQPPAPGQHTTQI

RPS6KA1 KD1 KD2 (human) = RPS6KA1 KD1 KD2 (human) (UniProt Q15418); details: compound 100.0 µM; ATP 50 µM
MINK1 (human) = MINK1 (human) (UniProt Q8N4C8); details: compound 100.0 µM; ATP 50 µM
MINK1 (human), sequence (Q8N4C8 whole entry, looked up): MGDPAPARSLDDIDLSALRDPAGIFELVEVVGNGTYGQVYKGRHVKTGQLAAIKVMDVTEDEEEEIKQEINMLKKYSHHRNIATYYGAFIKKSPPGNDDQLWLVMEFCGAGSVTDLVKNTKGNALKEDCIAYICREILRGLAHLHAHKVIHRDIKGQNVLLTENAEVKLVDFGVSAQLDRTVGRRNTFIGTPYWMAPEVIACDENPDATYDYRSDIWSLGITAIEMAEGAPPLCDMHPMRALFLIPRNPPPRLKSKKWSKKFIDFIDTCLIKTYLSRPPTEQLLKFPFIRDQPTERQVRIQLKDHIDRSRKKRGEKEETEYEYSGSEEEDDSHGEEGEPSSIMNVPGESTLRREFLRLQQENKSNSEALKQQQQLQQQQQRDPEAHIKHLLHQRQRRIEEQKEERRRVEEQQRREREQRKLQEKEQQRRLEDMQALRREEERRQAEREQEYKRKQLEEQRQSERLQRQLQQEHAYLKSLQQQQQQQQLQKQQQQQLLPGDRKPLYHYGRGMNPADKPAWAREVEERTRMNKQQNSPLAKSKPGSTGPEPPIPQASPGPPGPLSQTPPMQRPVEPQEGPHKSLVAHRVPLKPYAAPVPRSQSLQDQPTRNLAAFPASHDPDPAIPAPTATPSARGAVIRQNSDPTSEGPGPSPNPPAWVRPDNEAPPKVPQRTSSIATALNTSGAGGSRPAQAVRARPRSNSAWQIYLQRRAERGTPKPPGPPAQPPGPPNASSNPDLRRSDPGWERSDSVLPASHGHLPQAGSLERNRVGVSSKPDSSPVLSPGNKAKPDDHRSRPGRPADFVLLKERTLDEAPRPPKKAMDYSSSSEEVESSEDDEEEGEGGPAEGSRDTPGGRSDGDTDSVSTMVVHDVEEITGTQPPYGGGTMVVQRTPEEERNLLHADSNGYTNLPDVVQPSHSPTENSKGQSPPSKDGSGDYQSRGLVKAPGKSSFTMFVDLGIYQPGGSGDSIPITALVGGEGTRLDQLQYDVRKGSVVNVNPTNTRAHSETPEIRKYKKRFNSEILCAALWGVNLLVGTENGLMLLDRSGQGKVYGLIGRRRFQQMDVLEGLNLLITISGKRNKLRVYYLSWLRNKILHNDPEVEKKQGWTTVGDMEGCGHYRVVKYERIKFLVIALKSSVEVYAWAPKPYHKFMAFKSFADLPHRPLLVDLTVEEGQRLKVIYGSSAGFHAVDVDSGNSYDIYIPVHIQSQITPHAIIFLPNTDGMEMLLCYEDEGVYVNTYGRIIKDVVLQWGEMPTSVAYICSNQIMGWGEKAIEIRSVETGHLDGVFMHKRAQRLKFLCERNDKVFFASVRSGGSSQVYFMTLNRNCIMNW

TEK (human) = TEK (human) (UniProt Q02763); details: compound 100.0 µM; ATP 20 µM

FLT1 (human), sequence (P17948 whole entry, looked up): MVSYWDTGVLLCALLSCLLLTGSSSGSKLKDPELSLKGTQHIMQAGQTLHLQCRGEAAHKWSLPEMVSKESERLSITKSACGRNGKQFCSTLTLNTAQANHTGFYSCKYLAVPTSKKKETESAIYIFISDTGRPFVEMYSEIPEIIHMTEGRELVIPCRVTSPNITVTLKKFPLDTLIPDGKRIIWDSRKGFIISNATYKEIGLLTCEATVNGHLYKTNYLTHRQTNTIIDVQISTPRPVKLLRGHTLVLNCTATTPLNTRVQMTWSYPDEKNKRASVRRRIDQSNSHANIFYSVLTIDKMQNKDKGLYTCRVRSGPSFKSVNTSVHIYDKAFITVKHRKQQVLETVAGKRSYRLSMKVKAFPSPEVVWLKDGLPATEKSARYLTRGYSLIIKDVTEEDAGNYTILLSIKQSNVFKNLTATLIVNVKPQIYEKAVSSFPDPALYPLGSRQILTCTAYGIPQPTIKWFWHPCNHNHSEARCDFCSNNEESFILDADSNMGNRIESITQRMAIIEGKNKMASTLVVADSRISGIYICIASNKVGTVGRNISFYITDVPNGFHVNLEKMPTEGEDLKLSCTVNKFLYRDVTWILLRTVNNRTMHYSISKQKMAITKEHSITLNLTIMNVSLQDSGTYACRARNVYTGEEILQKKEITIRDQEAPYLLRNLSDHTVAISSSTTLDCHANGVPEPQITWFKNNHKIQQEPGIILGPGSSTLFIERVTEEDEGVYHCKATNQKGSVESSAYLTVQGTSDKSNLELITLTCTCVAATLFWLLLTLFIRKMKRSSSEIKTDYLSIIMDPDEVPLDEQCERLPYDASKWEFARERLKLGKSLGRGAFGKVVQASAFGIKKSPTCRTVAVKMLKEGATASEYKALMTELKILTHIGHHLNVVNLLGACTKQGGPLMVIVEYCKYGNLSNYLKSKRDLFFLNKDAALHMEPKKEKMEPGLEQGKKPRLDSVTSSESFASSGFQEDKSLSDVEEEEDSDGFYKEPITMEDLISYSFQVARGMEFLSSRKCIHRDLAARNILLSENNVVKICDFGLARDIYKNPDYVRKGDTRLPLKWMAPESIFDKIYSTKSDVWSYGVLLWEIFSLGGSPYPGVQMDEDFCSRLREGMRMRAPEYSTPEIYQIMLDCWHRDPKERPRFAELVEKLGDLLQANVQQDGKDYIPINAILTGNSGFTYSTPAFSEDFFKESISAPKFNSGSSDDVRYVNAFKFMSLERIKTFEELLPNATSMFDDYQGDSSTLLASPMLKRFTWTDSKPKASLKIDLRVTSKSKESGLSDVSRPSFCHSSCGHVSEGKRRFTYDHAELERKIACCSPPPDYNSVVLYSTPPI

## O=c1c(NC(=S)NCc2ccccc2)cnc2[nH]ccn12
MAPKAPK2 (human)
  inhibition: 23%
FLT1 (human)
  inhibition: 28%
NEK2 (human)
  inhibition: 4%
MAP3K11 (human)
  inhibition: 11%
ROCK2 (rat)
  inhibition: 13%
MYLK (human)
  inhibition: 0%
PRKCA (human)
  inhibition: 2%
PIM3 (human)
  inhibition: 0%
CDK2 CCNA2 (human)
  inhibition: 0%
[1]
  inhibition: 31%
STK33 (human)
  inhibition: 13%
PAK6 (human)
  inhibition: 0%
PIM2 (human)
  inhibition: 4%
EEF2K (human)
  inhibition: 6%
EPHB4 (human)
  inhibition: 9%
MKNK2 (human)
  inhibition: 13%
BRSK2 (human)
  inhibition: 18%
MAPKAPK3 (human)
  inhibition: 21%
TBK1 (human)
  inhibition: 0%
MAPK8 (human)
  inhibition: 0%
EPHA4 (human)
  inhibition: 15%
ERBB4 (human)
  inhibition: 34%
PHKG1 (human)
  inhibition: 24%
ABL1 (human)
  inhibition: 0%
NEK6 (human)
  inhibition: 6%
CSNK2A1 (human)
  inhibition: 3%
MARK1 (human)
  inhibition: 13%
[2]
  inhibition: 9%
PIM1 (human)
  inhibition: 0%
AURKA (human)
  inhibition: 8%
PTK6 (human)
  inhibition: 31%
MAPK13 (human)
  inhibition: 0%
CaMK1 (human)
  inhibition: 6%
DYRK3 (human)
  inhibition: 10%
MST4 (human)
  inhibition: 0%
MELK (human)
  inhibition: 0%
STK16 (human)
  inhibition: 0%
RPS6KA1 KD1 KD2 (human)
  inhibition: 17%
MINK1 (human)
  inhibition: 0%
TEK (human)
  inhibition: 0%
